Here are results for one compound from publication PMC5218480 (PLoS ONE, 2017).

This test deals with MV-4-11 cells. Nature of the test: Gene expression microarray analysis (Affymetrix PrimeView) and GSEA. Format: cell-based, human. To be noted: MV-4-11, 48 hours, 1 μM each.

Take `Nc1ccc(-c2cccs2)cc1NC(=O)c1ccc2c(c1)cc(C1CC1)n2CCN1CCOCC1` [ACY-1035]: the “genes up-regulated greater than 2-fold relative to vehicle control” value worked out at 386 genes.
